Test results from PubChem BioAssay AID2060605 (Molecular Pharmacology Branch, DTP, NCI, 2025).
Blank lines part the entries; values can stand above or below the compound they belong to.

Test system: 947758-054-R-J2-PDC spheroid growth, percent test/control
Experiment: Anticancer human tumor 947758-054-R-J2-PDC patient-derived colon adenocarcinoma cell line growth inhibition [CLK]
Conditions: spheroids with HUVEC and MSC; for IC50: curve of first compound; for viability, T/C: stronger effect = lower value
In short: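 Multi-cell-type spheroids combined patient-derived tumor cells with HUVEC endothelial cells and human mesenchymal stem cells. Paired agents were dosed in half-log steps down from about clinical Cmax, or from 10 microM where Cmax was unknown.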

[1] = second compound 0.0316 µM, first compound 0.0316 µM
[2] = second compound 0.0316 µM, first compound 0.1 µM
[3] = second compound 0.0316 µM, first compound 0.316 µM
[4] = second compound 0.0316 µM, first compound 1 µM
[5] = second compound 0.0316 µM, first compound 3.16 µM
[6] = second compound 0.0316 µM, first compound 10 µM
[7] = second compound 0.1 µM, first compound 0.0316 µM
[8] = second compound 0.1 µM, first compound 0.1 µM
[9] = second compound 0.1 µM, first compound 0.316 µM
[10] = second compound 0.1 µM, first compound 1 µM
[11] = second compound 0.1 µM, first compound 3.16 µM
[12] = second compound 0.1 µM, first compound 10 µM
[13] = second compound 0.316 µM, first compound 0.0316 µM
[14] = second compound 0.316 µM, first compound 0.1 µM
[15] = second compound 0.316 µM, first compound 0.316 µM
[16] = second compound 0.316 µM, first compound 1 µM
[17] = second compound 0.316 µM, first compound 3.16 µM
[18] = second compound 0.316 µM, first compound 10 µM
[19] = second compound 1 µM, first compound 0.0316 µM
[20] = second compound 1 µM, first compound 0.1 µM
[21] = second compound 1 µM, first compound 0.316 µM
[22] = second compound 1 µM, first compound 1 µM
[23] = second compound 1 µM, first compound 3.16 µM
[24] = second compound 1 µM, first compound 10 µM
[25] = second compound 3.16 µM, first compound 0.0316 µM
[26] = second compound 3.16 µM, first compound 0.1 µM
[27] = second compound 3.16 µM, first compound 0.316 µM
[28] = second compound 3.16 µM, first compound 1 µM
[29] = second compound 3.16 µM, first compound 3.16 µM
[30] = second compound 3.16 µM, first compound 10 µM
[31] = second compound 10 µM, first compound 0.0316 µM
[32] = second compound 10 µM, first compound 0.1 µM
[33] = second compound 10 µM, first compound 0.316 µM
[34] = second compound 10 µM, first compound 1 µM
[35] = second compound 10 µM, first compound 3.16 µM
[36] = second compound 10 µM, first compound 10 µM
[37] = second compound 0.0316 µM, first compound 0.00316 µM
[38] = second compound 0.0316 µM, first compound 0.01 µM
[39] = second compound 0.1 µM, first compound 0.00316 µM
[40] = second compound 0.1 µM, first compound 0.01 µM
[41] = second compound 0.316 µM, first compound 0.00316 µM
[42] = second compound 0.316 µM, first compound 0.01 µM
[43] = second compound 1 µM, first compound 0.00316 µM
[44] = second compound 1 µM, first compound 0.01 µM
[45] = second compound 3.16 µM, first compound 0.00316 µM
[46] = second compound 3.16 µM, first compound 0.01 µM
[47] = second compound 10 µM, first compound 0.00316 µM
[48] = second compound 10 µM, first compound 0.01 µM
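Note: spheroids exposed to compounds for one week before readout.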
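Throughout, for viability, T/C: 100% = DMSO vehicle control wells.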

IC50 (second compound 0.0316 µM): > 10000 nM
IC50 (second compound 0.1 µM): > 10000 nM
IC50 (second compound 0.316 µM): 9670 nM
IC50 (second compound 1 µM): > 10000 nM
IC50 (second compound 3.16 µM): < 31.6 nM
IC50 (second compound 10 µM): < 31.6 nM
Structure (SMILES): CC(CO)NC(=O)c1cc(-c2ccc(Cl)cc2)nn(-c2cnn(C)c2)c1=O (stereo not drawn) + CNC(=O)c1ccc(Nc2nc(OC3CCCC3)c3c(-c4ccc5nc(C)oc5c4)c[nH]c3n2)c(OC)c1
viability, T/C [1]: 92.2%
viability, T/C [2]: 66.3%
viability, T/C [3]: 72.1%
viability, T/C [4]: 71.8%
viability, T/C [5]: 65.8%
viability, T/C [6]: 52.3%
viability, T/C [7]: 84.3%
viability, T/C [8]: 93.9%
viability, T/C [9]: 80%
viability, T/C [10]: 84.6%
viability, T/C [11]: 68.6%
viability, T/C [12]: 52.5%
viability, T/C [13]: 76.2%
viability, T/C [14]: 69%
viability, T/C [15]: 69.8%
viability, T/C [16]: 87.1%
viability, T/C [17]: 88.5%
viability, T/C [18]: 49.1%
viability, T/C [19]: 67.2%
viability, T/C [20]: 51.9%
viability, T/C [21]: 52.7%
viability, T/C [22]: 65.3%
viability, T/C [23]: 72.4%
viability, T/C [24]: 35.9%
viability, T/C [25]: 46.9%
viability, T/C [26]: 41%
viability, T/C [27]: 51.1%
viability, T/C [28]: 56.6%
viability, T/C [29]: 55.9%
viability, T/C [30]: 37.2%
viability, T/C [31]: 28.5%
viability, T/C [32]: 44.2%
viability, T/C [33]: 40.4%
viability, T/C [34]: 41.6%
viability, T/C [35]: 30%
viability, T/C [36]: 25.9%

IC50 (second compound 0.0316 µM): 75.4 nM
IC50 (second compound 0.1 µM): 94.9 nM
IC50 (second compound 0.316 µM): 59.4 nM
IC50 (second compound 1 µM): < 31.6 nM
IC50 (second compound 3.16 µM): < 31.6 nM
IC50 (second compound 10 µM): < 31.6 nM
Structure (SMILES): CC(Nc1ccc2c(c1)OCCn1cc(N3C(=O)OCC3C(F)F)nc1-2)C(N)=O (stereo not drawn) + CNC(=O)c1ccc(Nc2nc(OC3CCCC3)c3c(-c4ccc5nc(C)oc5c4)c[nH]c3n2)c(OC)c1
viability, T/C [1]: 55.6%
viability, T/C [2]: 51.5%
viability, T/C [3]: 39.4%
viability, T/C [4]: 35.8%
viability, T/C [5]: 39%
viability, T/C [6]: 33.7%
viability, T/C [7]: 70.7%
viability, T/C [8]: 46.2%
viability, T/C [9]: 36.2%
viability, T/C [10]: 35%
viability, T/C [11]: 28%
viability, T/C [12]: 20.8%
viability, T/C [13]: 64.6%
viability, T/C [14]: 37.9%
viability, T/C [15]: 16.9%
viability, T/C [16]: 22.7%
viability, T/C [17]: 21.6%
viability, T/C [18]: 14.4%
viability, T/C [19]: 34.1%
viability, T/C [20]: 19.7%
viability, T/C [21]: 12.5%
viability, T/C [22]: 10.8%
viability, T/C [23]: 10.8%
viability, T/C [24]: 4.05%
viability, T/C [25]: 31.8%
viability, T/C [26]: 14.3%
viability, T/C [27]: 9.12%
viability, T/C [28]: 8.23%
viability, T/C [29]: 5.63%
viability, T/C [30]: 4.88%
viability, T/C [31]: 20.7%
viability, T/C [32]: 10.9%
viability, T/C [33]: 10.3%
viability, T/C [34]: 6.53%
viability, T/C [35]: 4.37%
viability, T/C [36]: 4.21%

IC50 (second compound 0.0316 µM): 792 nM
IC50 (second compound 0.1 µM): 263 nM
IC50 (second compound 0.316 µM): 46 nM
IC50 (second compound 1 µM): 6.65 nM
IC50 (second compound 3.16 µM): < 3.16 nM
IC50 (second compound 10 µM): < 3.16 nM
Structure (SMILES): CCN1CCN(Cc2ccc(Nc3ncc(F)c(-c4cc(F)c5nc(C)n(C(C)C)c5c4)n3)nc2)CC1 + CNC(=O)c1ccc(Nc2nc(OC3CCCC3)c3c(-c4ccc5nc(C)oc5c4)c[nH]c3n2)c(OC)c1
viability, T/C [37]: 96.1%
viability, T/C [38]: 94.5%
viability, T/C [1]: 90.7%
viability, T/C [2]: 73%
viability, T/C [3]: 61.5%
viability, T/C [4]: 46.9%
viability, T/C [39]: 102%
viability, T/C [40]: 73.2%
viability, T/C [7]: 61.4%
viability, T/C [8]: 65.8%
viability, T/C [9]: 57.4%
viability, T/C [10]: 32.8%
viability, T/C [41]: 101%
viability, T/C [42]: 71.3%
viability, T/C [13]: 39.5%
viability, T/C [14]: 60.1%
viability, T/C [15]: 38.9%
viability, T/C [16]: 22.3%
viability, T/C [43]: 59.2%
viability, T/C [44]: 46.8%
viability, T/C [19]: 31.9%
viability, T/C [20]: 31%
viability, T/C [21]: 42.4%
viability, T/C [22]: 19.8%
viability, T/C [45]: 52.2%
viability, T/C [46]: 32.5%
viability, T/C [25]: 39.8%
viability, T/C [26]: 34%
viability, T/C [27]: 33.7%
viability, T/C [28]: 25.1%
viability, T/C [47]: 40%
viability, T/C [48]: 41.2%
viability, T/C [31]: 35.6%
viability, T/C [32]: 31.6%
viability, T/C [33]: 21.1%
viability, T/C [34]: 21.1%

IC50 (second compound 0.0316 µM): 18.1 nM
IC50 (second compound 0.1 µM): 14.7 nM
IC50 (second compound 0.316 µM): 7.81 nM
IC50 (second compound 1 µM): < 3.16 nM
IC50 (second compound 3.16 µM): < 3.16 nM
IC50 (second compound 10 µM): < 3.16 nM
Structure (SMILES): COc1c(OCCCN2CCOCC2)ccc2c3n(c(=NC(=O)c4cnc(N)nc4)nc12)CCN3 + CNC(=O)c1ccc(Nc2nc(OC3CCCC3)c3c(-c4ccc5nc(C)oc5c4)c[nH]c3n2)c(OC)c1
viability, T/C [37]: 77%
viability, T/C [38]: 53.6%
viability, T/C [1]: 39.2%
viability, T/C [2]: 37.2%
viability, T/C [3]: 25.1%
viability, T/C [4]: 13.4%
viability, T/C [39]: 69.9%
viability, T/C [40]: 60.6%
viability, T/C [7]: 30.2%
viability, T/C [8]: 22.2%
viability, T/C [9]: 14.9%
viability, T/C [10]: 10.6%
viability, T/C [41]: 71.4%
viability, T/C [42]: 44.6%
viability, T/C [13]: 21.1%
viability, T/C [14]: 11.8%
viability, T/C [15]: 8.06%
viability, T/C [16]: 3.94%
viability, T/C [43]: 49.8%
viability, T/C [44]: 30.4%
viability, T/C [19]: 10.1%
viability, T/C [20]: 4.35%
viability, T/C [21]: 3.7%
viability, T/C [22]: 2.28%
viability, T/C [45]: 43.2%
viability, T/C [46]: 17.7%
viability, T/C [25]: 9.11%
viability, T/C [26]: 3.98%
viability, T/C [27]: 3.84%
viability, T/C [28]: 2.88%
viability, T/C [47]: 25.4%
viability, T/C [48]: 15.1%
viability, T/C [31]: 8.44%
viability, T/C [32]: 4.43%
viability, T/C [33]: 2.95%
viability, T/C [34]: 2.09%
